The numbers were not newly measured in US12622943B2, “Composition for relieving woman menopausal symptom comprising a mixed extract of hop and citrus peel and method for treating or alleviating menopausal symptom using the same” (LG HOUSEHOLD & HEALTH CARE LTD., priority 2022, dated 2026), which cites them from elsewhere.

In this data set the test system is uterine weight. The settings on record: administered to animals at high doses.

Take `CC(C)=CCc1c(O)cc(O)c2c1O[C@H](c1ccc(O)cc1)CC2=O` [8-Prenylnaringenin]: the uterine weight entry is “increased”.
